One compound from US12318361B2, “Methods for treating cardiovascular diseases” (Olatec Therapeutics LLC, priority 2017, dated 2025) can be followed below.

Test [1] concerns IL-1β, IL-6 and IL-1α in hearts of mice. The experiment in a line: Cytokine levels in heart homogenates after in vivo lipopolysaccharide challenge. More on the design: species or system C57BL/6J mice. To be noted: 200 mg/kg IP every 12 h for 5 doses; LPS 5 mg/kg IP, 2 h; vs saline, P<0.05. As for the experimental part:
C57BL/6J mice male mice, 22-26 grams (Jackson Laboratories, Bar Harbor, ME) were treated with 200 mg/kg dapansutrile (OLT1177™) in 200 μl of saline or the matching volume of vehicle (saline) intraperitoneally (IP) every 12 hours for 5 doses. One hour after the last dose or saline, the animals were injected IP with 200 μl of lipopolysaccharide (LPS, E. coli, 055: B5, Sigma-Aldrich) at 5 mg/kg and sacrificed after 2 h. Cytokines were measured in hearts homogenates. Tissue homogenates were lysed using RIPA buffer (Sigma-Aldrich) containing a mixture of protease inhibitors (Roche, Indianapolis, IN), centrifuged at 13,000g for 20 minutes at 4° C., and the supernatants were assayed for cytokine levels of IL-1β, IL-6 and IL-1α. The cytokine concentrations were corrected for total protein content.
The dose of LPS that was used in the study covers ischemic inflammation, vascular inflammation and cell-mediated inflammation.

In test [2] the test system is mice, intra-articular zymosan arthritis model. The experiment in a line: Zymosan-induced knee joint arthritis in mice. To be noted: 600 mg/kg oral gavage, 5 doses, 24 h after zymosan. The class given is in vivo. As for the experimental part:
Zymosan injected directly into the knee joint of mice elicits an inflammatory response and is used as a model of arthritis (Verschure et al, Ann. Rheum Dis. 53:455-460, 1994). Endpoints measured in this model include knee joint swelling score, cytokine levels in the synovial tissue and microscopic pathology of the knee.
Arthritis was induced in mice by intra-articular injection of zymosan (180 μg) into the knee joint (at time zero) of both knees in each mouse. Mice were treated by oral gavage with vehicle (saline, n=5) or dapansutrile (drug) in vehicle (600 mg/kg, n=4) at times −25 hr, −13 hr, and −1 hr. After zymosan injection at time zero, mice were further treated with vehicle or dapansutrile (600 mg/kg) at times +11 hr and +23 hr. Mice were terminated 24 hours after the zymosan injection.
Macroscopic joint swelling was assessed on all knees after the skin is removed using a scoring system ranging from 0 to 3, with 0 being no swelling and 3 being severe swelling.
In addition, synovial membrane was taken from one knee per mouse and the cells were lysed for measurement of mouse IL-1β, using an ELISA kit from R&D Systems, Inc., following manufacturer's protocols. The results are shown as mean ±standard error of mean and statistical evaluation is performed (see FIG. 2).

The test system of test [3] is IL-1β release from human monocytes-derived macrophages. The experiment in a line: Suppression of IL-1β release from human monocytes-derived macrophages (LPS priming, nigericin release, ELISA). The test is classed as cell-based. As for the experimental part:
Peripheral blood mononuclear cells (PBMCs) were isolated from blood of 6 healthy human donors and differenciates in macrophages using GM-CSF (5 ng/ml) for 5 days. They were stimulated with 1 μg/mL with lipopolysaccharide (LPS, priming phase) at time zero. At 30 minutes, they were incubated with different concentrations of dapansutrile (OLT1177™) from 0.001-100 μM. At 4 hours, 10 μM of nigericin (NIG, release phase) was added. At the end of an 5 hour incubation period, the supernatant was harvested and assayed for IL-1β or IL-18 using respective ELISA kits following manafacturer's protocols.

The subject of a further test is caspase-1. The test is described as follows: Western blot for caspase-1 (p45 and p10) in J774A.1 cells after LPS/ATP stimulation. The test is classed as cell-based, murine. As to the method:
J774A.1 murine macrophages cells were stimulated with 1 μg/ml lipopolysaccharide (LPS) for 4 hours and either nigericin (NIG, 10 μM) or ATP (5 mM) was added for 1 hour. OLT1177™ was added to the cells either 30 minutes following LPS stimulation or at the same time as ATP.
A subunit of activated caspase-1 (p10) was reduced in J774A.1 cells in the presence of dapansutrile (OLT).
(In general: In western blotting, separated proteins are transferred to a membrane and probed.)

Test [4] relates to rats, thrombus formation in abdominal aorta. The experiment in a line: Thrombus formation in anesthetized rats (abdominal aorta stenosis and compression injury). The test is classed as in vivo, rats (CD-1). The note with it: intravenous via tail vein, 5 min before injury; written in present tense. As for the experimental part:
To evaluate the effect of dapansutrile on thrombus formation in vivo, the following experimental protocol is performed.
Rats (CD-1; male; approximately 350 grams; Charles River, Raleigh, NC), are anesthetized with sodium pentobarbital (70 mg/kg i.p.). The abdomens are shaved and a 22 gauge intravenous catheter is inserted into a lateral tail vein. A midline incision is made and the intestines are wrapped in saline-soaked gauze and positioned so the abdominal aorta is accessible. […] All branches from the aorta in this section are ligated with 4-0 silk suture. A 2.5 mm diameter flow probe connected to a Transonic flow meter is placed on the artery and a baseline (pre-stenosis) flow is recorded. Two clips are placed around the artery decreasing the vessel diameter by approximately 80%. A second baseline flow measurement is taken (post-stenosis) and the hyperemic response is tested. Animals are then treated with either Rho kinase inhibitor compound or saline intravenously via tail vein catheter. Thrombosis is induced five minutes after treatment by repeated external compressions of the vessel with hemostatic forceps. Two minutes post-injury, the vessel compressions are repeated and a 10 minute period of flow monitoring is started. Animals are monitored continuously for a minimum of the first ten minutes post-injury. […]

Turning to `CS(=O)(=O)CCC#N` [OLT1177™, 3-methanesulfonyl-propionitrile], in test [1], the “cytokine level of IL-1α in hearts” value was “reduced”, the “cytokine level of IL-1β in hearts” value is “reduced” and the “cytokine level of IL-6 in hearts” value is “reduced”. Further, the “level of IL-1β in synovial membrane” value in test [2] (vs untreated mice) is reported as “significantly reduced”. The “macroscopic joint swelling (score 0 to 3)” value in test [2] (vs vehicle-treated mice) is “significant reduction”. The “concentration of maximum suppression effect on IL-1β release” value in test [3] (HMDM, 1 μg/mL LPS then 10 μM nigericin, 0.001-100 μM tested) came to 1 µM. Besides, the “release of IL-1β from stimulated monocytes-derived macrophages” value in test [3] (LPS/nigericin, compared to control) is reported as “suppresses”. Besides, in the test on caspase-1, the “subunit of activated caspase-1 (p10), Western blot” value is given as “reduced”. Further, in test [4], the “histological evidence of thrombosis” value was “decrease” and the “vessel injury-induced flow reduction” value is reported as “decrease”.
